According to US20240298638A1, “METHODS AND COMPOSITIONS FOR REDUCING MICROBIAL CONTAMINANTS DURING POULTRY PROCESSING” (DIVERSEY, INC., priority 2020, published 2024):

Test system: Salmonella Enterica ATCC 10708
Assay: Antimicrobial efficacy on inoculated chicken drumettes (log10 reduction, nBPW neutralizer; Colby synergy)
Type: cell-based
Conditions: for Observed Average Reduction (AntiLog10 value): antiLog10 of the observed log10 reduction; for Observed Average Reduction (AntiLog10 value) / Observed Average Log10 Reduction: Salmonella Enterica ATCC 10708; for Observed Average Log10 Reduction: chicken drumettes soaked 90 seconds in composition, recovery in nBPW neutralizer

| Structure (SMILES) | antimicrobial efficiency of the organic solvent by itself (by itself) | Observed Average Reduction (AntiLog10 value) | Observed Average Log10 Reduction [log10] |
| --- | --- | --- | --- |
| CC(O)CO (centres unmarked) [Propylene glycol] | did not provide any antimicrobial efficiency | – | – |
| CCC(=O)O [propionic acid] | – | 6.17 | 0.79 |
| CC(=O)OO [PAA, peracetic acid] | – | 14.15 | 1.16 |
